For data set [1], the system named is human cytomegalovirus (HCMV) strain AD169 and TB 40. It counts as cell-based. The conditions noted are these: human lung fibroblasts, IE staining.
In another data set the test system is HCMV. Description: Test of inhibition of HCMV assembly and egress (modified plaque assay, 3 and 5 dpi). The conditions noted are these: left until 7 dpi, infected human lung fibroblast cells, IE staining; for Inhibition 3 dpi (%): agent added 3 dpi; for Inhibition 5 dpi (%): agent added 5 dpi. It counts as cell-based, human cytomegalovirus.
Data set [2] concerns infected and uninfected human lung fibroblasts. Description: Toxicity by propidium iodide staining of cell cultures. It counts as cell-based. The conditions noted are these: method and source not stated. Here is the method: The concentrations of compounds used in the viral experiments were at the μM level. Cellular toxicity for B-220 has been shown for concentrations above 100 μM.

For the compound `Cc1cc2nc3c4ccccc4n(CCN(C)C)c3nc2cc1C` [B-220, 2,3-dimethyl-6-(N,N-dimethylaminoethyl)-6H-indolo(2,3-b)quinoxaline], the “Inhibitory effect (%) as % inhibition of infection” value (“Inhibitory effect (%)” below) in data set [1] turned out to be 20%. Also, in the data set on HCMV, the “Inhibition 3 dpi (%)” value was 65-85% and the “Inhibition 5 dpi (%)” value is on record as 65-80%. Moreover, the “concentrations at which cellular toxicity has been shown” value in data set [2] is on record as “above 100 μM”.

On to `O=C(O)P(=O)(O)O` [Foscavir], for which the “Inhibitory effect (%)” value in data set [1] is listed as 20-50%. Further, in the data set on HCMV, the “Inhibition 3 dpi (%)” value is 85-100% and the “Inhibition 5 dpi (%)” value is reported as 65-85%.

Regarding `Nc1nc(O)c2ncn(COC(CO)CO)c2n1` [Ganciclovir], the “Inhibitory effect (%)” value in data set [1] is recorded as 20-30%. Also, in the data set with HCMV, the “Inhibition 3 dpi (%)” value stood at 100% and the “Inhibition 5 dpi (%)” value is 80-95%.

As to `Cc1oncc1C(=O)Nc1ccc(C(F)(F)F)cc1` [Leflunomide], in data set [1], the “Inhibitory effect (%)” value was 25-50%. Moreover, in the data set on HCMV, the “Inhibition 3 dpi (%)” value is recorded as 65-80% and the “Inhibition 5 dpi (%)” value was 80-90%.
